US20240124467A1, “FUSED PYRIMIDINE COMPOUNDS AS INHIBITORS OF MENIN-MLL INTERACTION” (Biomea Fusion, Inc., priority 2020, published 2024)
Read-outs that look alike come from different tables or passages of the source.

Experiments:
Assay type in all cases: cell-based
K-562 = assay: Cell proliferation inhibition (CellTiter-Glo), K-562 cells; details: Homo sapiens, K-562 (BCR-ABL)
Protocol: (§1) The present example evaluates the ability of compounds described herein, inhibitors of Menin/MLL interaction, to inhibit cell proliferation. The proliferation inhibitory effect was investigated in human MLL-leukemia cells selected on the bases of MLL fusion proteins and listed in the table below.
(§2) ATP is present in all metabolically active cells and is considered as a marker for cell viability and proliferation. The metabolic cell activity was determined using the CellTiter-Glo kit from Promega, an ATP monitoring system based on the production of luminescence by the reaction of ATP with added UltraGlo® recombinant luciferase (Kawano et al., 2016, PLOS One, 8:11(7):e0158888), according to the supplier's experimental recommendations. The assay is based on a 96 well plate format. All experiments were carried out in duplicate in one test occasion.
(§3) Test items were dissolved at 20 mM in DMSO with purity ≥99.9% (Sigma catalog no. D8418) and stored at −20° C. Cells were maintained in RPMI-1640 medium (Invitrogen catalog no. 618700) supplemented with 10% of Heat Inactivated FBS (Invitrogen catalog no. 10500) and 1% Pen-Strep (Invitrogen catalog no. 15140) and cultured at 37° C. in a humidified incubator with 5% CO2. Cell lines were grown in suspension and the cell density was maintained in a range of 5×10^4-1×10^6 viable cells/ml where possible. Cells were pelleted at 130 g×5 min.
(§4) Serial dilutions of compounds 1 to 3 in DMSO 100% were prepared starting from a 2.5 mM solutions (prepared by diluting 1:8 the 20 mM stock solution) to generate a 7 point concentration response curve (CRC). Seven concentrations of test compounds (e.g., 5.00×10^−6-1.67×10^−6-5.56×10^−7-1.85×10^−7-6.17×10^−8-2.06×10^−8-6.86×10^−9 M) were assessed in duplicate in an individual test occasion in parallel in the selected cell lines. KO-539 was used as a reference compound and tested in duplicate at seven similar concentrations. 100% of proliferation was represented by the untreated cells (0.2% DMSO).
(§5) Cell proliferation inhibition was monitored at both the following end points: Day 4 (T4) and Day 7 (T7). For the appropriate cell density during the exponential cell growth and re-supply with fresh compound solution at T4, cells were diluted (1:4) with fresh medium containing the compound concentration (1×).
(§6) For each plate to test, one 0.4 μL copy plate and four 0.3 μL copy plates were stamped into 96-well plates not treated for cell adhesion (Sarstedt—cat. no. 82.1581.001) by acoustic liquid handling (Echo) at a concentration which was 500 fold the final assay concentration. Stamped plates were stored at −20° C.
(§7) On Day 0, the day of the experiment cell line suspensions were counted by Cell Viability Analyser, Vi-CELL (Beckman Coulter AY15292), and diluted with fresh medium to obtain the following cell densities: K-562 500 c/ml, MOLM-13 1,000 c/ml, MV4-11 10,000 c/ml, OCI-AML-3 500 c/ml, and U-937 500-1,000 c/ml. 200 μL/well and 150 μL/well of cell suspension were added into the 0.4 μL/well and 0.3 μL/well compound plates, respectively. Cell plate containing 200 μL/well suspension were incubated at 37° C. in a humidified incubator with 5% CO2. From each well of the 150 μL/well cell assay plate, 100 μL were harvested and transferred into a 96-well Optiplate (Perkin Elmer, cat. no. 6005290). Cell viability was measured as described below.
(§8) On Day 4, 150p/well of fresh medium was added into a new 0.3 μL/well copy compound plates. From each well of the 200 μL/well cell assay plate, 100 μL was sampled for the cell viability measurement as described below. 50p was harvested and added to the 150p/well compound plate prepared as described in the first point to dilute 1:4 the cell suspension. The cell assay plate diluted and containing 200 μL/well suspension was incubated at 37° C. in a humidified incubator with 5% CO2.
(§9) On Day 4, 150p/well of fresh medium was added into a new 0.3 μL/well copy compound plates. […]

MOLM-13 = assay: Cell proliferation inhibition (CellTiter-Glo), MOLM-13 cells; details: Homo sapiens, MOLM-13 (MLL-AF9)
Protocol: as §1, §2, §3, §4, §5, §6, §7, §8, §9

MV4-11 = assay: Cell proliferation inhibition (CellTiter-Glo), MV4-11 cells; details: Homo sapiens, MV4-11 (MLL-AF4)
Protocol: as §1, §2, §3, §4, §5, §6, §7, §8, §9

[1] = K562, 96 h, Day 4, read-out: K-562 IC50 μM (Day 4)
[2] = K562, 168 h, Day 7, read-out: K-562 IC50 μM (Day 7)*
[3] = 96 h, Day 4, read-out: MOLM-13 Day IC50 μM (Day 4)*
[4] = 168 h, Day 7, read-out: MOLM-13 Day IC50 μM (Day 7)*
[5] = 96 h, Day 4, read-out: MV-4:11 IC50 μM (Day 4)*
[6] = 168 h, Day 7, read-out: MV-4:11 IC50 μM (Day 7)*

IC50 (K-562; [1]) [µM]	IC50 (K-562; [2]) [µM]	IC50 (MOLM-13; [3]) [µM]	IC50 (MOLM-13; [4]) [µM]	IC50 (MV4-11; [5]) [µM]	IC50 (MV4-11; [6]) [µM]	Compound
2.96	3.47	0.202	0.349	0.398	0.43	C=CC(=O)N[C@@H]1CCC[C@H](Nc2ccnc(C(=O)Nc3ccc(-c4cc5c(N6CCOCC6)ncnc5[nH]4)cc3)c2)C1 [Compound B0700-607, 4-(((1S,3R)-3-acrylamidocyclohexyl)amino)-N-(4-(4-morpholino-7H-pyrrolo[2,3-d]pyrimidin-6-yl)phenyl)picolinamide]
> 10		> 10		> 10		C=CC(=O)N[C@@H]1CCCN(Cc2cccc(S(=O)(=O)Nc3ccc(-c4nc5c(N6CCOCC6)ncnc5s4)nc3)c2)C1 [Compound B0700-534, (R)—N-(1-(3-(N-(6-(7-morpholinothiazolo[5,4-d]pyrimidin-2-yl)pyridin-3-yl)sulfamoyl)benzyl)piperidin-3-yl)acrylamide]
2.89		> 10		8.92		C=CC(=O)N[C@@H]1CCCN(Cc2ccnc(C(=O)NC3CCN(c4nc5c(N6CCOCC6)ncnc5s4)CC3)c2)C1 [Compound B0700-310, (R)-4-((3-acrylamidopiperidin-1-yl)methyl)-N-(1-(7-morpholinothiazolo[5,4-d]pyrimidin-2-yl)piperidin-4-yl)picolinamide]
4.34		1.56		1.5		C=CC(=O)N[C@@H]1CCCN(Cc2ccnc(C(=O)Nc3ccc(-c4cc5c(C6CCOCC6)ncnc5[nH]4)cc3)c2)C1 [Compound B0700-516, (R)-4-((3-acrylamidopiperidin-1-yl)methyl)-N-(4-(4-(tetrahydro-2H-pyran-4-yl)-7H-pyrrolo[2,3-d]pyrimidin-6-yl)phenyl)picolinamide]
> 10	> 10	0.806	0.458	0.487	0.29	C=CC(=O)N1CCC(N2CCC(S(=O)(=O)Nc3ccc(-c4cc5c(N6CCOCC6)ncnc5[nH]4)cc3)CC2)CC1 [Compound B0700-610, 1′-acryloyl-N-(4-(4-morpholino-7H-pyrrolo[2,3-d]pyrimidin-6-yl)phenyl)-[1,4′-bipiperidine]-4-sulfonamide]
9.07		0.158		0.073		C=CC(=O)N[C@H]1CCN(c2cccc(C(C)S(=O)(=O)Nc3ccc(-c4cc5c(N6CCOCC6)ncnc5[nH]4)cc3)c2)C1 (stereo partly shown) [Compound B0700-543]
> 10		3.67		1.18		C=CC(=O)NC1CN(c2ccnc(CC(=O)Nc3ccc(-c4cc5c(N6CCOCC6)ncnc5[nH]4)cc3)n2)C1 [Compound B0700-323, N-(1-(2-(2-((4-(4-morpholino-7H-pyrrolo[2,3-d]pyrimidin-6-yl)phenyl)amino)-2-oxoethyl)pyrimidin-4-yl)azetidin-3-yl)acrylamide]
> 10	9.87	0.492	1.07	0.318	0.37	C=CC(=O)N[C@@H]1CCCN(Cc2ccnc(C(=O)Nc3ccc(-c4cc5c(N6CCC(C)(O)CC6)ncnc5[nH]4)cc3)c2)C1 [Compound B0700-569]
6.14		0.351		0.969		C=CC(=O)N[C@@H]1CCCN(Cc2ccnc(C(=O)Nc3ccc(-c4cc5c(N6CCOCC6)ncnc5[nH]4)c(F)c3)c2)C1 [Compound B0700-529, (R)-4-((3-acrylamidopiperidin-1-yl)methyl)-N-(3-fluoro-4-(4-morpholino-7H-pyrrolo[2,3-d]pyrimidin-6-yl)phenyl)picolinamide]
5.3		> 10		> 10		C=CC(=O)N[C@@H]1CCCN(Cc2ccnc(C(=O)NC3CCN(c4nc5c(N6CCOCC6)ncnc5o4)CC3)c2)C1 [Compound B0700-518]
8.83	10.1	1.27	1.47	0.786	0.78	C=CC(=O)N[C@H]1CCN(c2cccc(CC(=O)Nc3ccc(-c4cc5c(N6CCOCC6)ncnc5[nH]4)cc3)c2)C1 [Compound B0700-618, (S)—N-(1-(3-(2-((4-(4-morpholino-7H-pyrrolo[2,3-d]pyrimidin-6-yl)phenyl)amino)-2-oxoethyl)phenyl)pyrrolidin-3-yl)acrylamide]
3.3		0.48		0.322		C=CS(=O)(=O)N[C@@H]1CCCN(c2cccc(CS(=O)(=O)Nc3ccc(-c4cc5c(N6CCOCC6)ncnc5[nH]4)cc3)c2)C1 [Compound B0700-542, (R)—N-(1-(3-((N-(4-(4-morpholino-7H-pyrrolo[2,3-d]pyrimidin-6-yl)phenyl)sulfamoyl)methyl)phenyl)piperidin-3-yl)ethenesulfonamide]
> 10	> 10	0.631	0.546	0.651	0.54	C=CC(=O)N[C@@H]1CCCN(Cc2ccnc(C(C)Nc3ccc(-c4cc5c(N6CCOCC6)ncnc5[nH]4)cc3)c2)C1 (stereo partly drawn) [Compound B0700-514, N-((3R)-1-((2-(1-((4-(4-morpholino-7H-pyrrolo[2,3-d]pyrimidin-6-yl)phenyl)amino)ethyl)pyridin-4-yl)methyl)piperidin-3-yl)acrylamide]
> 10		3.91		1.56		C=CC(=O)N[C@@H]1CCCN(c2cccc(C(C)S(=O)(=O)Nc3ccc(-c4cc5c(N6CCOCC6)ncnc5[nH]4)cc3F)c2)C1 (stereo partly drawn) [Compound B0700-559, N-((3R)-1-(3-(1-(N-(2-fluoro-4-(4-morpholino-7H-pyrrolo[2,3-d]pyrimidin-6-yl)phenyl)sulfamoyl)ethyl)phenyl)piperidin-3-yl)acrylamide]
> 10		1.03		0.274		C=CC(=O)N[C@H]1CCCN(c2cccc(C(C)S(=O)(=O)Nc3ccc(-c4cc5c(N6CCOCC6)ncnc5[nH]4)cc3)c2)C1 (stereo partly shown) [Compound B0700-565]
> 10	> 10	0.963	0.834	0.629	0.38	C=CC(=O)N1CCCC(N2CCC(S(=O)(=O)Nc3ccc(-c4cc5c(N6CCOCC6)ncnc5[nH]4)cc3)C2)C1 (stereo not shown) [Compound B0700-611, 1-(1-acryloylpiperidin-3-yl)-N-(4-(4-morpholino-7H-pyrrolo[2,3-d]pyrimidin-6-yl)phenyl)pyrrolidine-3-sulfonamide]
0.997		0.271				[2H]C([2H])=C([2H])C(=O)N[C@@H]1CCCN(Cc2ccnc(C(=O)Nc3ccc(-c4cc5c(N6CCOCC6)ncnc5[nH]4)cc3)c2)C1 [Compound B0700-557, (R)-4-((3-(acrylamido-2,3,3-d3)piperidin-1-yl)methyl)-N-(4-(4-morpholino-7H-pyrrolo[2,3-d]pyrimidin-6-yl)phenyl)picolinamide]
0.74		0.35				C=CC(=O)N[C@H]1CCCN(Cc2ccnc(C(=O)Nc3ccc(-c4cc5c(N6CCOCC6)ncnc5[nH]4)cc3)c2)C1 [Compound B0700-704]
